# System: HCV replicon
# Assay: HCV replicon luciferase reporter assay
# Format: cell-based
# Settings: Hepatitis C virus, Table 5; read-out: IC50
# Summary of the method: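 Replicon-bearing dividing cells seeded at 5,000–7,500 cells/well, grown 24 h at 37° C/5% CO2, then exposed to test compound at various concentrations for a further 24–48 h. Replication/translation read by luciferase reporter; IC50 taken as compound amount giving 50% reduction in luciferase activity.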
row,SMILES,IC50
1,"O=C(O)COc1ccc(C(=O)NCCCNc2nsc3ccccc23)cc1 [Entry 238, 2-(4-(3-(benzo[d]isothiazol-3-ylamino)propylcarbamoyl)phenoxy) acetic acid]",> 5 µM
2,"CN(CCCNc1nsc2ccccc12)S(=O)(=O)c1ccccc1C(F)(F)F [Entry 240, N-(3-(benzo[d]isothiazol-3-ylamino)propyl)-N-methyl-2-(trifluoromethyl)benzenesulfonamide]",< 5 µM
3,"COc1ccc(-c2ccc(CNCCCNc3nsc4nccnc34)cc2)cc1 [Entry 241, N^1-(isothiazolo[5,4-b]pyrazin-3-yl)-N^3-((4′-methoxybiphenyl-4-yl)methyl)propane-1,3-diamine]",< 5 µM

# From patent US7776847B2, “Benzisothiazoles useful for treating or preventing HCV infection” (priority 2005, dated 2010)
